Consider two molecules from patent US20130131136A1, “NOVEL METHODS FOR PREDICTING THE RESPONSIVENESS OF A PATIENT AFFECTED WITH A TUMOR TO A TREATMENT WITH A TYROSINE KINASE INHIBITOR” (priority 2010, published 2013).

Data set [1] deals with advanced metastatic renal cell clear cell carcinoma. As to the kind of experiment: Sutent treatment of patients with advanced metastatic renal cell clear cell carcinoma, response after the 3 months therapy course (RECIST criteria). The format is in vivo, human. Conditions: of 50 patients analyzed, 50 mg/day for 4 weeks followed by 2 weeks off. The procedure:
All patients were diagnosed with advanced metastatic renal cell clear cell carcinoma and subjected to surgery for removal of the primary tumor. The tumor tissue was fixed in formaldehyde, and embedded in paraffin. Sections were cut and stained for the FSH receptor using the monoclonal antibody FSHR323, followed by a secondary HRP- or Alexa555-coupled antibody. The density of vessels in the tumor tissue was determined by microscopy using a 20× objective. Starting at the border between the normal and the tumor tissue and moving towards the interior of the tumor, digital photographs were taken of every other field. The number of FSHR-positive vessels in each image was counted in 20 images from each tumor.
The patients were subjected to Sutent treatment for >=3 months with a dose of 50 mg/day for 4 weeks followed by 2 weeks off. Depending on the effects of the treatment, at the end of the 3 months therapy course the patients were designated as “responsive”, “stable” or “non-responsive” according to the criteria described in [Eisenhauer et al., 2009]. The patients were categorized as “responsive” if there was at least a 30% decrease in the sum of the diameters of the lesions, and “non-responsive” if the sum of the lesion sizes increased by at least 20%.

Data set [2] concerns metastatic renal cell carcinoma (mRCC). The following applies: cited from earlier work.
The subject of another data set is RCC. The following applies: BEV alone; cited from earlier work.

For `CCN(CC)CCNC(=O)c1c(C)[nH]c(/C=C2\C(=O)Nc3ccc(F)cc32)c1C` [Sutent, N-[2-(diethylamino)ethyl]-5-[(Z)-(5-fluoro-1,2-dihydro-2-oxo-3H-indol-3-ylidine)methyl]-2,4-dimethyl-1H-pyrrole-3 carboxamide], in data set [1], the “number of patients "non-responsive" (sum of the lesion sizes increased by at least 20%)” value is given as 17 patients, the “number of patients "responsive" (at least 30% decrease in the sum of the diameters of the lesions)” value was determined as 15 patients and the “number of patients "stable"” value is recorded as 18 patients. The “fraction of RCC patients who respond to the treatment” value in data set [2] (RCC patients) was “about one third”. For the same molecule, the “reduction of the risk of relapse (progression-free survival)” value in data set [2] (first-line therapy, mRCC, compared to interferon-α) is given as 58%. Besides, in data set [2] (patients, typical treatment session 3 months), the adverse side effects result was “significant adverse side effects”.
On to “BEV: a monoclonal humanized antibody against circulating VEGF”, for which, in the data set on RCC, the “activity in patients with RCC” value was “showed activity only as second-line treatment and only in cytokine-refractory patients”.
